Drawing on DBAASP, this text covers MIC for five molecules.

Holding throughout (experiment): ≥ marks a high value that may be exact or a test limit, other limits are often not marked, values filed in µg/mL are converted to µM
For test [1], the system named is Escherichia coli JC113.
For test [2], the system named is Bacillus subtilis JC443.
Test [3] deals with Pseudomonas aeruginosa JC115.
For test [4], the system named is Staphylococcus aureus JC114.
The test system of test [5] is Lacticaseibacillus rhamnosus 1.0911.
Test [6] deals with Salmonella enterica subsp. enterica serovar Pullorum C79-13.
The test system of test [7] is Escherichia coli O157:H7 CICC 21530.
In test [8] the test system is Staphylococcus epidermidis ATCC 12228.
For test [9], the system named is Escherichia coli K88.
Test [10] relates to Staphylococcus aureus ATCC 29213.
Test [11] concerns Staphylococcus aureus ATCC 43300.
Test [12] has as its system Salmonella enterica subsp. enterica serovar Choleraesuis CVCC 503.
For test [13], the system named is Pseudomonas aeruginosa ATCC 27853.
Test [14] concerns Lacticaseibacillus rhamnosus 8014.
Test [15] relates to Streptococcus agalactiae BNCC 185941.
Test [16] has as its system Pseudomonas aeruginosa PAO1.
Test [17] concerns Salmonella enterica subsp. enterica serovar Typhimurium ATCC 14028.
For test [18], the system named is Lacticaseibacillus rhamnosus 1.0936.
The subject of test [19] is Lacticaseibacillus rhamnosus 1.9021.
Test [20] concerns Bacillus subtilis KCTC 3068.
Test [21] deals with Escherichia coli KCTC 1682.
In test [22] the test system is Staphylococcus aureus KCCM 40510.
The test system of test [23] is Enterococcus faecalis KCCM 11814.
Test [24] has as its system Pseudomonas aeruginosa CCARM 2180.
Test [25] deals with Staphylococcus epidermidis KCTC 1917.
Test [26] concerns Staphylococcus aureus KCTC 1621.
Test [27] has as its system Pseudomonas aeruginosa KCTC 1637.
For test [28], the system named is Enterococcus faecalis ATCC 51575.
The subject of test [29] is Acinetobacter baumannii ATCC BAA-1605.
Test [30] concerns Acinetobacter baumannii KCCM 1053.
For test [31], the system named is Salmonella typhimurium KCTC 1926.
The subject of test [32] is Escherichia coli ATCC 25922.
Test [33] concerns Staphylococcus aureus ATCC 25923.
In test [34] the test system is Staphylococcus aureus CCARM 3125.
Test [35] has as its system Listeria monocytogenes KCTC 19111.
The subject of test [36] is Pseudomonas aeruginosa 4007.
In test [37] the test system is Staphylococcus aureus 3518.
For test [38], the system named is Staphylococcus aureus 3399.
The subject of test [39] is Pseudomonas aeruginosa CCARM 2075.
The subject of test [40] is Staphylococcus aureus CCARM 3709.
Test [41] relates to Pseudomonas aeruginosa CCARM 2073.
For test [42], the system named is Pseudomonas aeruginosa ATCC 15692.
Test [43] has as its system Pseudomonas aeruginosa 3241.
Test [44] concerns Legionella pneumophila Lens.

≈ marks a conversion by molar mass, not a printed value.

By MIC is commonly meant the smallest concentration in the dilution series that meets the test's criterion for growth inhibition. On to `NC(=O)[C@H](Cc1ccccc1)NC(=O)[C@@H]1CSSC[C@H](NC(=O)[C@H](Cc2ccccc2)NC(=O)[C@H](Cc2ccccc2)NC(=O)[C@@H](N)Cc2ccccc2)C(=O)N[C@@H](CO)C(=O)N[C@@H](CCCN=C(N)N)C(=O)N1` [FFFCSRCF], for which the MIC in test [1] is no less than 152 µM; in test [2] it was no less than 171 µM; in test [3], no less than 157 µM; in test [4] it was no less than 180 µM.

In the case of `CC(C)C[C@H](NC(=O)CNC(=O)[C@H](CC(C)C)NC(=O)[C@H](Cc1c[nH]c2ccccc12)NC(=O)[C@H](CC(C)C)NC(=O)CNC(=O)[C@H](CC(C)C)NC(=O)[C@H](CCCCN)NC(=O)[C@@H](N)CCCCN)C(=O)N[C@@H](CCCCN)C(=O)N[C@@H](CCCCN)C(N)=O` [KKLGLWLGLKK], the MIC in test [5] was no less than 128 µM; in test [6], 8 µM (≈ 10.3 µg/mL); in test [7], 8 µM (≈ 10.3 µg/mL); in test [8], greater than 128 µM; in [9] it was 8 µM (≈ 10.3 µg/mL); in [10], greater than 128 µM. Besides, the MIC in [11] was greater than 128 µM; in test [12], no less than 64 µM; in [13] it was 32 µM (≈ 41 µg/mL); in test [14], no less than 128 µM; in test [15], no less than 128 µM; in [16], 64 µM (≈ 82.1 µg/mL). Also, the MIC in [17] was 64 µM (≈ 82.1 µg/mL); in test [18], no less than 128 µM; in test [19] it was no less than 128 µM.

In the case of `CC[C@H](C)[C@@H]1NC(=O)[C@H](CCCCN)NC(=O)[C@@H](NC(=O)[C@H](CC(C)C)NC(=O)[C@@H](N)CCCCN)CSSC[C@@H](C(=O)N[C@@H](CCCCN)C(=O)O)NC(=O)[C@H](C(C)C)NC(=O)[C@H](CCCCN)NC(=O)[C@H]([C@@H](C)CC)NC(=O)[C@H](C(C)C)NC(=O)[C@H](C(C)C)NC1=O` [KLCKIVVIKVCK], the MIC in test [20] is no less than 64 µM; in test [21] it was 8 µM (≈ 11 µg/mL); in test [22] it was no less than 64 µM; in test [23], no less than 64 µM; in test [24], no less than 64 µM; in [25], no less than 32 µM. In addition, the MIC in [26], in [27], in test [28], in [29], in test [30] and in test [31] was no less than 64 µM throughout.

In the case of `CC(C)C[C@H](NC(=O)[C@H](Cc1c[nH]c2ccccc12)NC(=O)[C@H](CCCCN)NC(=O)[C@H](CCCCN)NC(=O)[C@H](CC(C)C)NC(=O)[C@H](Cc1c[nH]c2ccccc12)NC(=O)[C@H](CCCCN)NC(=O)[C@H](CCCCN)NC(=O)[C@H](CC(C)C)NC(=O)[C@H](Cc1c[nH]c2ccccc12)NC(=O)[C@@H](N)CCCCN)C(=O)N[C@@H](CCCCN)C(N)=O` [KWLKKWLKKWLK], the MIC in test [32] is 1 µM (≈ 1.68 µg/mL); in [25], 1 µM (≈ 1.68 µg/mL); in [33], 2 µM (≈ 3.37 µg/mL); in test [34], 2 µM (≈ 3.37 µg/mL); in [35], 2 µM (≈ 3.37 µg/mL); in test [36] it was 2 µM (≈ 3.37 µg/mL). Further, the MIC in test [37] was determined as 2 µM (≈ 3.37 µg/mL); in test [38] it was 2 µM (≈ 3.37 µg/mL); in test [39] it was 1 µM (≈ 1.68 µg/mL); in [40] it was 2 µM (≈ 3.37 µg/mL); in test [41] it was 2 µM (≈ 3.37 µg/mL); in test [42], 2 µM (≈ 3.37 µg/mL). Further, the MIC in test [43] and in test [31] was 2 µM (≈ 3.37 µg/mL) in each case.

Molecule `CC[C@H](C)[C@H](NC(=O)[C@H](CC(C)C)NC(=O)CNC(=O)[C@H](CCCCN)NC(=O)[C@@H](NC(=O)[C@@H](NC(=O)[C@H](CCC(=O)O)NC(=O)[C@H](Cc1ccccc1)NC(=O)[C@@H](NC(=O)[C@H](CCCCN)NC(=O)[C@H](C)NC(=O)[C@@H](NC(=O)[C@@H](NC(=O)[C@H](CC(=O)O)NC(=O)[C@H](C)NC(=O)[C@@H](N)CCSC)C(C)C)[C@@H](C)CC)[C@@H](C)CC)[C@@H](C)CC)C(C)C)C(=O)N[C@@H](CC(=O)O)C(=O)N[C@@H](CCC(N)=O)C(=O)N[C@@H](Cc1ccccc1)C(=O)N[C@H](C(=O)N[C@@H](CCC(N)=O)C(=O)N[C@@H](CCCCN)C(=O)O)[C@@H](C)O` [MADVIAKIFEIVKGLIDQFTQK] yielded an MIC in test [44] of 1.85 µM (≈ 4.64 µg/mL).
